Data as given in patent publication US11571446B2, “Gut microbiota and treatment of cancer” (Sanford Burnham Prebys Medical Discovery Institute, priority 2016, dated 2023).
Entries after “also recorded” stand apart in the source; their conditions may differ.

Columns and labels:
tumor growth [1] = test: Tumor growth in Rnf5−/− mice treated with chemical chaperone; assay type: in vivo, mouse; conditions: treatment to alleviate ER stress
Source text: To understand the mechanism by which altered function of Rnf5^−/− mice might influence the anti-tumor immune response, changes in the intestinal epithelial cells (IECs) were examined, which cells play critical roles in both innate and adaptive immunity.

MC-38 cells = test: Growth of MC-38 colon cancer tumors in C57BL/6 mice given mucin or inulin; assay type: in vivo, mouse
Source text: (§1) FIG. 6A depicts growth of SW1 TLR4-mutant tumor cells in C3H/HeJ TLR4 mutant mice provided with control diet, alone or with supplemented mucin or inulin starting 14 days prior to tumor inoculation (n=10). FIG. 6B depicts growth of MC-38 tumors in C57BL/6 mice (n=10) that received, starting 14 days prior to tumor inoculation, control diet, alone or with supplemented mucin or inulin. FIG. 6C depicts tumor volume in C57BL/6 mice (n=10 per group) injected (s.c.) with a melanoma cell line (N-Ras mutant; 1×10^6 cells). The mice were provided control or inulin or mucin supplemented diet. When tumors reached a volume of […], mice were treated with MEKi (PD325901) administered by gavage (10 mg/kg, daily), alone or in combination with inulin or mucin, as indicated. Tumor volume was assessed every 4 days.
Next, it was determined whether mucin or inulin are also able to impact growth of colon cancer cells, representative of a different tumor type. Growth of MC-38 cells injected to WT mice was attenuated by inulin but not mucin (FIG. 6B). […] Corresponding increase in CD4, CD8, CD45 and DC, including pDC and mDC and MHC-I expression on DC, was identified in tumors subjected to the MEKi+inulin treatment.

YUMM1.5 melanoma cells = test: YUMM1.5 melanoma tumor growth in WT or Rnf5−/− mice given mucin or inulin; assay type: in vivo, mouse; conditions: 3% mucin in drinking water or 15% inulin diet from 14 days prior to tumor inoculation
Source text: (§2) FIG. 4A depicts plots of human fecal samples cultivated under anaerobic conditions in chemically defined medium with or without exogenous carbohydrate (n=6). Relative abundance of taxa encoding extensive glycosyl hydrolase activities. Cultures with no exogenous sugar were compared to cultures with N-acetyl-mannosamine, galactomannan and porcine gastric mucin. […] FIG. 4C depicts computer simulation identifies the uptake rates of mucin and inulin degradation products in the 2 media predicted to sustain the WT and Rnf5^−/− communities, showing higher predicted consumption of mucin and inulin products in the Rnf5^−/− community. FIG. 4D depicts YUMM1.5 tumor growth in WT or Rnf5^−/− mice provided with 0 or 3% mucin in drinking water starting 14 days prior to tumor inoculation (n=15). FIG. 4E depicts growth of Yumm1.5 tumors in WT or Rnf5^−/− received a control diet or a diet enriched 15% inulin 14 days prior to and during tumor inoculation (n=15). FIG. 4F depicts fold-changes of median abundances between Rnf5^−/−, mucin and inulin treated and WT mice, for 30 taxa that discriminate tumor attenuating and non-attenuating phenotypes.
To test this directly it was investigated whether administration of mucin to WT mice could phenocopy Rnf5^−/− mice, in terms of tumor growth, immune response and gut microbiota composition. […]

SW1 cells = test: Growth of SW1 melanoma in TLR4 mutant C3H/HeJ mice given mucin or inulin; assay type: in vivo, mouse
Source text: as §1
To determine whether TLR4, the receptor for bacterial lipopolysaccharides, might be involved in the mucin-induced anti-tumor immune phenotype, the growth of mouse melanoma SW1 cells was examined in Tlr4^−/− C3H/HeJ mice.

[2] = tested on: tumor-infiltrating immune cells; test: Tumor-infiltrating immune cells and immune gene transcription in mucin- or inulin-fed mice; assay type: in vivo, mouse
Source text: To test this directly it was investigated whether administration of mucin to WT mice could phenocopy Rnf5^−/− mice, in terms of tumor growth, immune response and gut microbiota composition. […] This prompted us to use machine learning to identify phylotypes that best distinguished WT (non-attenuated tumor growth) from Rnf5^−/− and WT mice treated with mucin or inulin (attenuated tumor growth). […] The immune status of mucin and inulin-fed WT mice also shifted to resemble that of Rnf5′ mice.

human fecal samples = test: Anaerobic cultivation of fecal samples with a sole carbohydrate source; assay type: cell-based; conditions: in vitro, unpublished results
Source text: as §2
The differences in the gut microbiota of Rnf5^−/− and WT mice before and during tumor formation highlighted a functionally coherent group of species that define a food web enriched for species encoding extensive glycosyl hydrolase activities. […]

tumor growth [3] = test: Fecal microbiota analysis of Rnf5−/− and WT tumor bearing mice; assay type: in vivo, mouse; conditions: Rnf5−/− vs WT microbiota
Protocol: The fecal microbiota of Rnf5^−/− and WT mice were analyzed. […] Of those, increased relative abundance of several bacterial taxa (including Bacteroides spp., B. acidifaciens, B. chinchilla, B. xylanisolvens, Parabacteroides merdae, Porphyromonas canis, Rickenella microfusus) and decreased abundance of others (including unclassified Bifidobacterium spp., B. choerinum, Odoribacter denticanis, Parabacteroides goldsteinii, unclassified Olivibacter, Parapedobacter koreensis) typified the microbiome of Rnf5^−/− mice bearing tumors, compared with the WT genotype.
The fecal microbiota of Rnf5−/− and WT mice were further analyzed. Marked differences in the microbial profiles were observed, highlighting differences in community structure depicted in principle component analysis that distinctly segregated Rnf5^−/− from WT microbiota. Analysis of microbiota allowed the identification of 42 phylotypes that distinguished Rnf5^−/− and WT microbiota in tumor bearing mice (FIG. 7). These phylotypes are dominated by a few taxonomic groups, the largest of which fall into the Clostridium cluster (37%). All but four of these may be assigned to Clostrium cluster IV or XIVa, known to be capable of producing butyrate that may influence Foxp3^+ Treg cells expansion. […]

## O=C(O)CCCc1ccccc1 [4-phenylbutyrate]
Tumor growth [1]
  tumor growth: did not affect tumor growth

## inulin
MC-38 cells; MC-38 tumors
  infiltration of MHC-I and MHC-I on DC cells: increase in the infiltration
MC-38 cells; WT C57BL/6 mice, supplemented diet from 14 days prior to inoculation
  growth of MC-38 cells: attenuated
YUMM1.5 melanoma cells
  melanoma tumor growth: attenuate melanoma growth; also recorded: reduced tumor growth
YUMM1.5 melanoma cells; listed as Inulin
  melanoma tumor growth: effective inhibition of melanoma growth
SW1 cells; SW1 cells in Tlr4−/− C3H/HeJ mice, supplemented diet from 14 days prior to inoculation
  melanoma growth: failed to significantly attenuate melanoma growth
SW1 cells; SW1 tumors in Tlr4−/− C3H/HeJ mice
  CD8+ T cells and TNF-α-producing tumor-infiltrating CD4+ T cells: not
[2]; WT mice, tumor
  tumor infiltrating immune cell phenotype: increased tumor infiltration of immune cells
[2]; shift to that seen in Rnf5−/− mice, albeit to a lower extent
  transcription of immune-related genes: induced a shift
Human fecal samples
  communities generated in fecal cultivation: generated communities similar to that of gastric mucin

## Clostridium clostridioforme
Tumor growth [3]
  association of bacterial strain with tumor growth: associated with inhibition of tumor growth
